According to the supplement of paper PMC10307832:

How the values were obtained:
Experiment in all cases: relative viability (nuclei count vs DMSO), 5 days (fraction); higher = more cells survive
[1] = compound: CCOc1cc2ncc(C#N)c(Nc3ccc(OCc4ccccn4)c(Cl)c3)c2cc1NC(=O)/C=C/CN(C)C [Neratinib] + COc1cccc2cc(-c3nc([C@H]4CC[C@H](C(=O)O)CC4)n4ncnc(N)c34)[nH]c12 [OSI-027] (partner 0.5 µM)
How it was run: (§1)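 Relative viability is defined as nuclei in treated wells over nuclei in vehicle wells. Duplicate plates were run and medians reported. Lung cancer cell lines in 1536-well plates were dosed by pin tool one day after seeding, with one drug or with a fixed anchor-drug dose plus five library-drug doses (not always all listed) in √10 steps, and nuclei were counted after 5 days.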

[2] = compound: CCOc1cc2ncc(C#N)c(Nc3ccc(OCc4ccccn4)c(Cl)c3)c2cc1NC(=O)/C=C/CN(C)C [Neratinib] + CS(=O)(=O)CCNCc1ccc(-c2ccc3ncnc(Nc4ccc(OCc5cccc(F)c5)c(Cl)c4)c3c2)o1 [Lapatinib] (partner 2 µM)
How it was run: as §1

[3] = compound: CCOc1cc2ncc(C#N)c(Nc3ccc(OCc4ccccn4)c(Cl)c3)c2cc1NC(=O)/C=C/CN(C)C [Neratinib] + C[C@]1(O)C[C@@H](c2nc(-c3ccc4ccc(-c5ccccc5)nc4c3)c3c(N)nccn32)C1 [Linsitinib] (partner 1 µM)
How it was run: as §1

[4] = compound: CCOc1cc2ncc(C#N)c(Nc3ccc(OCc4ccccn4)c(Cl)c3)c2cc1NC(=O)/C=C/CN(C)C [Neratinib] + Cc1nc(NC(=O)N2CCC[C@H]2C(N)=O)sc1-c1ccnc(C(C)(C)C(F)(F)F)c1 [Alpelisib] (partner 2 µM)
How it was run: as §1

| Cell Line | relative viability ([1]; first compound 0.01 µM) | relative viability ([1]; first compound 0.03162 µM) | relative viability ([1]; first compound 0.3162 µM) | relative viability ([1]; first compound 1 µM) | relative viability ([2]; first compound 0.01 µM) | relative viability ([2]; first compound 0.03162 µM) | relative viability ([2]; first compound 0.1 µM) | relative viability ([2]; first compound 0.3162 µM) | relative viability ([2]; first compound 1 µM) | relative viability ([3]; first compound 0.01 µM) | relative viability ([3]; first compound 0.03162 µM) | relative viability ([3]; first compound 0.1 µM) | relative viability ([3]; first compound 0.3162 µM) | relative viability ([3]; first compound 1 µM) | relative viability ([4]; first compound 0.03162 µM) | relative viability ([4]; first compound 0.1 µM) | relative viability ([4]; first compound 0.3162 µM) | relative viability ([4]; first compound 1 µM) | relative viability ([1]; first compound 0.1 µM) | relative viability ([4]; first compound 0.01 µM) |
| --- | --- | --- | --- | --- | --- | --- | --- | --- | --- | --- | --- | --- | --- | --- | --- | --- | --- | --- | --- | --- |
| HARA | 0.533 | 0.527 | 0.225 | 0.129 | 0.994 | 0.73 | 0.339 | 0.569 | 0.712 | 0.94 | 0.91 | 0.356 | 0.338 | 0.182 | 0.813 | 0.545 | 0.385 | 0.264 | – | – |
| HCC-15 | 0.707 | 0.794 | 0.559 | 0.511 | 0.947 | 1.01 | 0.715 | 0.756 | 0.725 | 0.894 | 0.913 | 0.776 | 0.81 | 0.551 | 0.92 | 0.864 | 0.859 | 0.584 | 0.6 | 0.931 |
| HCC-44 | 0.723 | 0.655 | 0.505 | 0.548 | 1.04 | 1.15 | 0.792 | 0.963 | 1.07 | 0.724 | 0.697 | 0.641 | – | 0.691 | 0.95 | 0.702 | 0.838 | 0.754 | 0.648 | 0.97 |
| HCC-78 | 0.387 | 0.333 | 0.27 | 0.296 | 0.89 | 1.09 | 0.788 | 0.952 | 0.398 | 0.543 | 0.665 | 0.483 | 0.338 | 0.241 | 0.344 | 0.329 | 0.254 | 0.225 | 0.354 | 0.359 |
| HCC-366 | 1.1 | 0.949 | 0.803 | 0.163 | 1.27 | 1.18 | 0.901 | 1.09 | 1.06 | 0.736 | 0.734 | – | 0.759 | 0.614 | 0.418 | 0.402 | – | 0.35 | 0.785 | 0.716 |
| HCC-827 | 0.81 | 0.774 | 0.508 | 0.16 | 0.223 | 0.229 | 0.17 | 0.174 | 0.165 | 1 | 0.971 | 0.933 | 0.931 | 0.221 | 1.11 | 0.967 | 0.583 | 0.182 | 0.721 | 1.05 |
| HOP-62 | 0.849 | 0.914 | 0.776 | 0.775 | – | – | 0.879 | 0.825 | 1.21 | 0.864 | 1.03 | 1.06 | 1.09 | 1.07 | 1 | 0.847 | 0.967 | – | 0.799 | 0.903 |
